Among the test systems are MDA-N; SK-MEL-2 melanoma; RPMI-8226 leukemia; 786-0 renal; COLO 205 colon; SR leukemia; OVCAR-8 ovarian; M14 melanoma; HT29 colon; HCT-15 colon; HOP-92 NSCLC.
Holding throughout (experiment): DTP human tumour cell line panel, 48 h

The term TGI denotes the concentration at which net growth stops. Read a high TGI as lower sensitivity of the cells.

SMILES strings stand for the structures.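 48-hour exposure; five concentrations; linearly interpolated endpoints. At the TGI there is no net growth.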 Some results are limits rather than exact numbers.

As to `Cc1c(-c2ccccc2)c(C#N)c2nnc(C(N)=O)c(N)n12`, the TGI in the assay on MDA-N, in the assay on SK-MEL-2 melanoma, in the assay with RPMI-8226 leukemia, with 786-0 renal, in the assay with COLO 205 colon and in the assay with SR leukemia was above 100 µM in each case. Moreover, the TGI with OVCAR-8 ovarian, in the assay on M14 melanoma, with HT29 colon and in the assay on HCT-15 colon was above 100 µM throughout.
Take `CC(C)OP(=O)(OC(C)C)C(C(C)C)N(C)/C(F)=N/C(F)(F)F` (configuration not stated): the TGI in the assay with MDA-N, in the assay with 786-0 renal, in the assay with COLO 205 colon, with OVCAR-8 ovarian, in the assay on M14 melanoma and in the assay with HT29 colon was above 100 µM throughout. The TGI with HOP-92 NSCLC and in the assay with HCT-15 colon was above 100 µM throughout.
As for `O=S1(=O)c2ccccc2NC(=S)CC1c1ccccc1` (configuration not stated), the TGI with MDA-N, with RPMI-8226 leukemia, with 786-0 renal, in the assay on COLO 205 colon, in the assay with SR leukemia and with OVCAR-8 ovarian was above 100 µM throughout. Moreover, the TGI in the assay with M14 melanoma, in the assay with HT29 colon and in the assay on HCT-15 colon was above 100 µM each time.
For the compound `CC(=O)Oc1ccc(C2COc3cc(OC(C)=O)c(OC(C)=O)cc3C2)cc1` (configuration not stated), the TGI was 41.5 µM with SK-MEL-2 melanoma; 58.8 µM in the assay on RPMI-8226 leukemia; 35.4 µM in the assay with COLO 205 colon; 35.6 µM in the assay with OVCAR-8 ovarian; above 81.5 µM in the assay on HT29 colon; 24.9 µM with HOP-92 NSCLC. The compound further had a concentration for total growth inhibition (TGI) in the assay on HCT-15 colon of 40.8 µM.
With `COC(=O)[C@@H]1C[C@@]2(C3C=CN(C(=O)C(F)(F)F)C=C3)c3ccccc3N(C(=O)C(F)(F)F)[C@H]2N1C(=O)OC`, the TGI in the assay on RPMI-8226 leukemia, in the assay on 786-0 renal, with COLO 205 colon, with SR leukemia, in the assay with OVCAR-8 ovarian and with M14 melanoma was above 100 µM throughout. Besides, the TGI with HOP-92 NSCLC and in the assay on HCT-15 colon was above 100 µM throughout.
With `Cn1cnc2c(sc3nc4ccccc4n32)c1=N`, the TGI in the assay with MDA-N, in the assay with SK-MEL-2 melanoma, in the assay on RPMI-8226 leukemia, in the assay on 786-0 renal, in the assay with COLO 205 colon and in the assay with OVCAR-8 ovarian was above 100 µM throughout. In addition, the concentration for total growth inhibition (TGI) in the assay with M14 melanoma, in the assay with HT29 colon, with HOP-92 NSCLC and in the assay with HCT-15 colon was above 100 µM each time.
As for `CCO/C(O)=C(/C(=N)N1CCCC1)C(=O)Nc1cccc(C(F)(F)F)c1`, the TGI with MDA-N, in the assay on SK-MEL-2 melanoma, in the assay on RPMI-8226 leukemia, with 786-0 renal, in the assay with COLO 205 colon and in the assay on OVCAR-8 ovarian was above 100 µM each time. The TGI in the assay on M14 melanoma, in the assay on HT29 colon and in the assay with HCT-15 colon was above 100 µM throughout.
For `CC(=Nc1ccncc1)C(C)=Nc1ccncc1`, the TGI is 45.1 µM in the assay on SK-MEL-2 melanoma; 45 µM with RPMI-8226 leukemia; above 100 µM with 786-0 renal; 31 µM in the assay with COLO 205 colon; 67 µM in the assay on SR leukemia; above 100 µM in the assay on OVCAR-8 ovarian. The TGI in the assay on M14 melanoma turned out to be 34.8 µM; in the assay on HT29 colon, 38.2 µM; in the assay with HOP-92 NSCLC, 83.5 µM; in the assay with HCT-15 colon, 27.5 µM.
For `Cc1c2c(OCCCCN3CCN(c4ncccn4)CC3)nn(C)c(=O)c2c(C)n1-c1ccccc1`, the TGI was 34.6 µM in the assay on SK-MEL-2 melanoma; 74.4 µM with RPMI-8226 leukemia; 34.7 µM in the assay on 786-0 renal; 34.8 µM in the assay with COLO 205 colon; 61.3 µM in the assay on OVCAR-8 ovarian; 35.9 µM in the assay on M14 melanoma. Also, the TGI in the assay on HT29 colon is above 100 µM; with HOP-92 NSCLC it was 31.8 µM; in the assay on HCT-15 colon it was 32.7 µM.
Regarding `C#CCn1c(=O)c(C#N)c(O)c2cc3ccccc3nc21`, the TGI with SK-MEL-2 melanoma, with RPMI-8226 leukemia, in the assay with COLO 205 colon, with OVCAR-8 ovarian, in the assay with HT29 colon and with HOP-92 NSCLC was above 100 µM throughout. The same compound returned a TGI with HCT-15 colon above 100 µM.
As for `NNc1nncn1N`, the TGI in the assay on SK-MEL-2 melanoma, in the assay on RPMI-8226 leukemia, in the assay on 786-0 renal, in the assay on COLO 205 colon, with SR leukemia and with OVCAR-8 ovarian was above 100 µM throughout. In addition, the TGI in the assay with M14 melanoma, in the assay on HT29 colon, in the assay with HOP-92 NSCLC and in the assay with HCT-15 colon was above 100 µM in each case.
`C=CC[C@@]1(C(=O)OC)[C@H](Sc2ccccc2)C1(C)C`: the total growth inhibition concentration (TGI) with SK-MEL-2 melanoma was 64.1 µM; in the assay with RPMI-8226 leukemia, 26.4 µM; in the assay on 786-0 renal, above 100 µM; with COLO 205 colon, above 100 µM; in the assay on OVCAR-8 ovarian, above 100 µM; in the assay with M14 melanoma, above 100 µM. Besides, the TGI in the assay on HT29 colon was above 100 µM; in the assay on HOP-92 NSCLC, 76.4 µM; in the assay with HCT-15 colon, above 100 µM.
In the case of `c1ccc2c(Cc3nnc4sc(SSc5nn6c(Cc7c[nH]c8ccccc78)nnc6s5)nn34)c[nH]c2c1`, the TGI worked out at 47.6 µM with 786-0 renal; 50.9 µM in the assay on COLO 205 colon; 41.7 µM in the assay with SR leukemia; 73.1 µM in the assay on OVCAR-8 ovarian; 37.2 µM in the assay on M14 melanoma; 44.4 µM with HT29 colon. In addition, the TGI in the assay with HOP-92 NSCLC was above 100 µM; in the assay with HCT-15 colon it was 53.6 µM.
For `CC(=O)O[C@H]1C(=O)[C@@]2(C)[C@H]([C@H](OC(=O)c3ccccc3)[C@]3(O)C[C@H](OC(=O)[C@H](O)[C@@H](NC(=O)CC(C)(C)C)c4ccccc4)C(C)=C1C3(C)C)C1(OC(C)=O)CO[C@@H]1C[C@@H]2O` (some centres not stated), the TGI in the assay on MDA-N is above 10 µM; in the assay with SK-MEL-2 melanoma, above 10 µM; in the assay with 786-0 renal, above 10 µM; in the assay on COLO 205 colon it was 0.012 µM; in the assay on OVCAR-8 ovarian, above 5.8 µM; in the assay with M14 melanoma, above 10 µM. Moreover, the figures for the TGI with HT29 colon and with HCT-15 colon were 0.0133 µM and above 5.78 µM, respectively.
`Cc1ccc(S(=O)(=O)c2c(O)c3ccccc3n(C)c2=O)cc1`: the total growth inhibition concentration (TGI) with MDA-N, with SK-MEL-2 melanoma, in the assay on RPMI-8226 leukemia, in the assay with 786-0 renal, in the assay on COLO 205 colon and with OVCAR-8 ovarian was above 100 µM each time. The TGI with M14 melanoma, in the assay with HT29 colon, in the assay with HOP-92 NSCLC and in the assay on HCT-15 colon was above 100 µM each time.

(Values after PubChem BioAssay (NCI).)
